Results on ten compounds are retold here after US4058608A, “Method of treating fungus-infected plants with phenylazocyanoacetic ester derivatives” (Chinoin Gyogyszer es Vegyeszeti Termekek Gyara RT, priority 1974, dated 1977).

Molecules are shown by their SMILES.

For orientation: LD50 means the dose at which mortality reaches 50%.

One series relates to mice. As to the kind of experiment: toxicity tests on mice. The class given is in vivo. The conditions noted are these: single treatment, one week observation. The method, then: (§1) 5, 10 or 20% of active agent were suspended in 0.1% agar gel, and the obtained homogeneous suspensions were injected intraperitoneally into mice, or were administered into the stomach of the animals via a stomach tube. The animals were kept under observation for one week after a single treatment, and the toxicity data were evaluated on the basis of the percentage deaths observed in this period.

The next series is described as follows: toxicity tests on mice. In kind it is in vivo. The conditions noted are these: mouse, in vivo, ip, intraperitoneal administration, calculated from LD0 and LD100. On the procedure:
as §1

Setting [1] is: oral administration (stomach tube).

`CCOC(=O)C(C#N)N=Nc1cccc(Cl)c1` (centres unmarked) [C2 H5 -- H Cl H]: the LD0 came to 200 mg/kg in the series with mice (intraperitoneal administration) and 6000 mg/kg in the series with mice (setting [1]). Further, the results for the LD100 with mice (intraperitoneal administration) and in the series on mice (setting [1]) were 600 mg/kg and 6000 mg/kg, respectively. In addition, the LD50 at 168 h in the series “toxicity tests on mice” was 400 mg/kg.
In the series with mice (intraperitoneal administration), `CCOC(=O)C(C#N)N=Nc1ccc(Cl)cc1` (centres unmarked) [C2 H5 -- H H Cl] showed an LD0 of 200 mg/kg and an LD100 of 600 mg/kg. In the series with mice (setting [1]), the LD0 is 6000 mg/kg and the LD100 came out at 6000 mg/kg. Also, the LD50 at 168 h in “toxicity tests on mice” is 400 mg/kg.
Turning to `CC(C)OC(=O)C(C#N)N=Nc1cccc(Cl)c1` (centres unmarked) [i-C3 H7 -- H Cl H], in the series with mice (intraperitoneal administration), the LD0 worked out at 300 mg/kg and the LD100 came out at 800 mg/kg. Further, in the series on mice (setting [1]), the LD0 came out at 6000 mg/kg and the LD100 stood at 6000 mg/kg. For the same compound, the LD50 at 168 h in “toxicity tests on mice” is 500 mg/kg.
Take `CC(C)OC(=O)C(C#N)N=Nc1ccc(Cl)cc1` (centres unmarked) [i-C3 H7 -- H H Cl]: in the series on mice (intraperitoneal administration), the LD0 is 400 mg/kg and the LD100 came out at 1000 mg/kg. Besides, in the series with mice (setting [1]), the LD0 was 6000 mg/kg and the LD100 is 6000 mg/kg. The LD50 at 168 h in “toxicity tests on mice” is 600 mg/kg.
Turning to `CCCOC(=O)C(C#N)N=Nc1cccc(Cl)c1` (centres unmarked) [n-C3 H7 -- H Cl H], in the series on mice (intraperitoneal administration), the LD0 was 300 mg/kg and the LD100 was determined as 800 mg/kg. For the same compound, in the series on mice (setting [1]), the LD0 came out at 6000 mg/kg and the LD100 worked out at 6000 mg/kg. The LD50 at 168 h in the series “toxicity tests on mice” is 500 mg/kg.
Take `CCCOC(=O)C(C#N)N=Nc1ccc(Cl)cc1` (centres unmarked) [n-C3 H7 -- H H Cl]: in the series with mice (intraperitoneal administration), the LD0 turned out to be 400 mg/kg and the LD100 came out at 1000 mg/kg. Moreover, in the series with mice (setting [1]), the LD0 was 6000 mg/kg and the LD100 is 6000 mg/kg. Further, the median lethal dose (LD50) at 168 h in the series “toxicity tests on mice” is 600 mg/kg.
Regarding `CCCCOC(=O)C(C#N)N=Nc1cccc(Cl)c1` (centres unmarked) [n-C4 H9 -- H Cl H], in the series on mice (intraperitoneal administration), the LD0 was determined as 500 mg/kg and the LD100 came out at 1000 mg/kg. Further, in the series on mice (setting [1]), the LD0 came to 6000 mg/kg and the LD100 stood at 6000 mg/kg. Also, in the series “toxicity tests on mice”, the LD50 at 168 h is 800 mg/kg.
On to `CCCCOC(=O)C(C#N)N=Nc1ccc(Cl)cc1` (centres unmarked) [n-C4 H9 -- H H Cl], for which the LD0 in the series on mice (intraperitoneal administration) was 500 mg/kg; in the series on mice (setting [1]) it was 6000 mg/kg. Also, the results for the LD100 in the series with mice (intraperitoneal administration) and in the series with mice (setting [1]) were 1000 mg/kg and 6000 mg/kg, respectively. Besides, in the series “toxicity tests on mice”, the LD50 at 168 h is 800 mg/kg.
In the series on mice (intraperitoneal administration), `CCCCOC(=O)C(C#N)N=Nc1ccc([N+](=O)[O-])cc1` (centres unmarked) [n-C4 H9 -- H H NO2 --] came in with an LD0 of 400 mg/kg and an LD100 of 800 mg/kg. In the series on mice (setting [1]), this compound gave an LD0 of 6000 mg/kg and an LD100 of 6000 mg/kg. Besides, the 50% lethal dose (LD50) at 168 h in the series “toxicity tests on mice” is 600 mg/kg.
`CCCCOC(=O)C(C#N)N=Nc1cccc([N+](=O)[O-])c1` (centres unmarked) [n-C4 H9 -- H NO2 -- H]: in the series with mice (intraperitoneal administration), the LD0 amounted to 400 mg/kg and the LD100 is 800 mg/kg. In the series on mice (setting [1]), this compound came in with an LD0 of 6000 mg/kg and an LD100 of 6000 mg/kg. Moreover, the LD50 at 168 h in the series “toxicity tests on mice” is 600 mg/kg.
